Test results reported in PMC7251097, “Aspartate/asparagine-β-hydroxylase: a high-throughput mass spectrometric assay for discovery of small molecule inhibitors” (Scientific Reports, 2020).
Counter-ions that a name gives are not always drawn. Like-named read-outs stand apart in the source and are kept apart here.

Biological target: T1, His6-AspH315–758 (human aspartate/asparagine-β-hydroxylase, AspH) (Homo sapiens, UniProt Q12797)
T1 construct: N-Terminally His6-tagged human AspH315–758 (His6-AspH315–758) was produced in E. coli BL21 (DE3) cells; made in house; host or cells: E. coli BL21 (DE3), pET-28a(+) vector
T1 sequence (Q12797 315-758): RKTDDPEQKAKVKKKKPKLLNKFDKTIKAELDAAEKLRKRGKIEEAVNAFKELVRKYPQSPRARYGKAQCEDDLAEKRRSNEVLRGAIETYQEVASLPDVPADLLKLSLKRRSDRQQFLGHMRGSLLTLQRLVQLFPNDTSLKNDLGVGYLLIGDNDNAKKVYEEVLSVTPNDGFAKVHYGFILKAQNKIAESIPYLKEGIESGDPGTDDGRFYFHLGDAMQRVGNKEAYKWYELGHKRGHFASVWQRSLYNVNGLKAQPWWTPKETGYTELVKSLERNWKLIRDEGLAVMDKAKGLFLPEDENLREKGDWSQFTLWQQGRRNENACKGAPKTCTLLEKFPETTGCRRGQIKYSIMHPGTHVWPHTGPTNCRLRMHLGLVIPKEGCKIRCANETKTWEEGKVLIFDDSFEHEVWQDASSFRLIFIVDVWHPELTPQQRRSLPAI
Experiment: SPE-MS AspH inhibition assay (LOPAC screen at fixed 20 μM and IC50 dose-response), hydroxylation of cyclic peptide hFX-CP101–119
Format: biochemical

[1] = LOPAC Plate 4, compound at 20 uM, substrate conversion
[2] = LOPAC Plate 4, compound at 20 uM
[3] = LOPAC compound at 20uM, plate 3, conversion of substrate peptide
[4] = LOPAC compound at fixed 20 uM, plate 1, normalised to DMSO and 2,4-PDCA controls
[5] = LOPAC compound at fixed 20 uM, substrate conversion, plate 1

`N[C@@H](Cn1oc(=O)[nH]c1=O)C(=O)O` [(+)-Quisqualic acid] was tested, and the “% conversion” value was 34.23%.

`CN1C(=O)CC[C@H]1c1cccnc1` [(-)-Cotinine] was tested, and the “Plate 1 (% conversion)” value was 36.85% and the “Plate 1 (% inhibition)” value was -2.91%.

With `CN1CC[C@@]2(C)c3cc(O)ccc3N(C)[C@@H]12.O=C(O)/C=C/C(=O)O` [(-)-Eseroline fumarate] the “Plate 2 (% conversion)” value was 19.71% and the “Plate 2 (% inhibition)” value (20 µM) was 48.52%.

In the case of `C[C@@]12N[C@@H](Cc3ccccc31)c1ccccc12.O=C(O)/C=C\C(=O)O` [(-)-MK-801 hydrogen maleate], the “Plate 3 (% conversion)” value is reported as 36.17%.

With `C=C(C)[C@H]1CC=C(C(=O)O)CC1` [(-)-Perillic acid] the “% conversion” value [1] was 29.82%.

With `C[N+]1(C)[C@@H]2C[C@@H](OC(=O)[C@H](CO)c3ccccc3)C[C@H]1[C@@H]1O[C@@H]12` [(-)-Scopolamine methyl bromide] the “% conversion” value was 37.79%.

For `CCN1CCC[C@H]1CNC(=O)c1cc(S(N)(=O)=O)ccc1OC` [(-)-Sulpiride], the “% conversion” value [1] was 32.10%.

For `Cl.c1ccc([C@H]2CN3CCSC3=N2)cc1` [(-)-Tetramisole hydrochloride], the “Plate 3 (% conversion)” value was 32.10%.

For `NC/C=C/C(=O)O` [(E)-4-amino-2-butenoic acid], the “% inhibition” value [2] was 0.14% and the “% conversion” value [1] was 36.42%.

With `C[C@](N)(CCP(=O)(O)O)C(=O)O.Cl` [(S)-MAP4 hydrochloride] the “Plate 3 (% conversion)” value [3] was 32.97%.

`CC(C)NC[C@H](O)COc1cccc2ccccc12` [(S)-Propranolol hydrochloride] was tested, and the “% conversion” value [1] was 27.07%.

`Cl.NCCNS(=O)(=O)c1cccc2c(Cl)cccc12` [A3 hydrochloride] was tested, and the “% conversion” value was 25.50%.

With `Cl.NC[C@@H]1O[C@H](c2ccccc2)Cc2c1ccc(O)c2O` [A-68930 hydrochloride] the “% inhibition” value [2] was 78.36% and the “% conversion” value [1] was 9.73%.

In the case of `Cl.NC[C@@H]1O[C@H](C23CC4CC(CC(C4)C2)C3)Cc2c1ccc(O)c2O` [A-77636 hydrochloride], the “Plate 1 (% conversion)” value is reported as 15.05% and the “Plate 1 (% inhibition)” value is reported as 62.00%.

`CCS(=O)(=O)Nc1cccc(C(=C2CCCCC2)c2cnc[nH]2)c1` [A-315456] was tested, and the “Plate 1 (% conversion)” value was 40.98% and the “Plate 1 (% inhibition)” value was -15.20%.

With `CC1=C(C)C(=O)C(CCCCC#CCCCC#CCO)=C(C)C1=O` [AA-861] the “Plate 1 (% inhibition)” value [4] was -23.70% and the “Plate 1 (% conversion)” value [5] was 43.83%.

With `CNC(=O)[C@H]1O[C@@H](n2cnc3c(NCc4ccc(N)cc4)ncnc32)[C@H](O)[C@@H]1O` [AB-MECA] the “Plate 1 (% inhibition)” value [4] was -6.25% and the “Plate 1 (% conversion)” value [5] was 37.97%.

`Cc1cc([C@@H]2CCCN2C)on1.Cl` [ABT-418 hydrochloride] was tested, and the “Plate 1 (% conversion)” value was 35.68% and the “Plate 1 (% inhibition)” value was 0.56%.

`CCCCCCCCc1ccc(-c2ccc(C(=O)O)cc2)cc1` [AC-55649] was tested, and the “% conversion” value was 33.36% and the “% inhibition” value (20 µM) was 9.11%.

In the case of `CC[n+]1c(/C=C/C=C2/N(C)c3ccccc3C2(C)C)sc2ccccc21.[I-]` [AC-93253 iodide], the “Plate 2 (% conversion)” value is reported as 41.62% and the “Plate 2 (% inhibition)” value (LOPAC compound at 20uM, plate 2, normalised to DMSO and 2,4-PDCA controls) is reported as -16.93%.

For `NS(=O)(=O)c1nn2cc(-c3ccccc3)nc2s1` [AEG 3482], the “Plate 3 (% conversion)” value was 35.73%.

With `N#C/C(=C\c1ccc(-c2cc(Cl)ccc2Cl)o1)C(=O)Nc1cccc2ncccc12` [AGK2] the “% conversion” value [1] was 36.60%.

`NC1(C(=O)O)CCc2cc(C(=O)O)ccc21` (centres unmarked) [AIDA] was tested, and the “Plate 1 (% inhibition)” value [4] was 3.11% and the “Plate 1 (% conversion)” value [5] was 34.83%.

In the case of `CC(C)(C)c1ccc(/C=C/C(=O)Nc2ccc3c(c2)OCCO3)cc1` [AMG 9810], the “% inhibition” value [2] is reported as 5.34% and the “% conversion” value [1] is reported as 34.65%.

`O=C(Nc1ccccc1C(=O)NC1CCCCNC1=O)c1cc2ccccc2s1` (centres unmarked) [ANA-12] was tested, and the “% conversion” value [1] was 32.70%.

With `CCN(CC)c1ncnc2c1ncn2[C@@H]1O[C@H](COP(=O)([O-])OP(=O)([O-])C(Br)(Br)P(=O)([O-])O)[C@@H](O)[C@H]1O.[Na+].[Na+].[Na+]` [ARL 67156 trisodium salt] the “Plate 1 (% inhibition)” value [4] was 82.09% and the “Plate 1 (% conversion)” value [5] was 8.30%.

`O=C(N/N=C/c1c(O)ccc2ccccc12)c1ccncc1` [AS-8351, reference compound] showed an IC50 (50 nM His6-AspH315–758, 1.0 μM hFX-CP101–119, 3 μM 2OG, 2 μM Fe(II), 50 mM HEPES pH 7.5, 20 °C, mean ± SD, n = 2 (2,4-PDCA n = 10), read-out: IC50) of 3.07 ± 0.43 µM.

In the case of `O=C1NC(=O)/C(=C/c2ccc(-c3ccc(F)cc3O)o2)S1` [AS-252424], the “Plate 1 (% inhibition)” value [4] is reported as -9.30% and the “Plate 1 (% conversion)” value [5] is reported as 39.00%.

In the case of `CC(C)(C)c1o[nH]c(=O)c1CC(N)C(=O)O` (centres unmarked) [ATPA], the “Plate 1 (% conversion)” value is reported as 36.48% and the “Plate 1 (% inhibition)” value is reported as -1.82%.

With `CC(=O)c1ccc2c(c1)N(CCCN(C)C)c1ccccc1S2` [Acepromazine maleate] the “% conversion” value [1] was 29.56%.

With `CC(N)=O` [Acetamide] the “Plate 1 (% inhibition)” value [4] was 0.92% and the “Plate 1 (% conversion)” value [5] was 35.56%.

For `CC(=O)Nc1nnc(S(N)(=O)=O)s1` [Acetazolamide], the “Plate 1 (% inhibition)” value [4] was 9.71% and the “Plate 1 (% conversion)” value [5] was 32.61%.

With `CC(=O)c1ccc(S(=O)(=O)NC(=O)NC2CCCCC2)cc1` [Acetohexamide] the “Plate 1 (% inhibition)” value [4] was -6.36% and the “Plate 1 (% conversion)” value [5] was 38.01%.

In the case of `CC(=O)OC(C)C[N+](C)(C)C.[Cl-]` (stereo not drawn) [Acetyl-beta-methylcholine chloride], the “Plate 1 (% inhibition)” value [4] is reported as -15.64% and the “Plate 1 (% conversion)” value [5] is reported as 41.13%.

For `CC(=O)Oc1ccccc1C(=O)O` [Acetylsalicylic acid], the “Plate 1 (% inhibition)” value [4] was -0.51% and the “Plate 1 (% conversion)” value [5] was 36.04%.

`CC(=O)SCC[N+](C)(C)C.[Cl-]` [Acetylthiocholine chloride] was tested, and the “Plate 1 (% conversion)” value was 37.52% and the “Plate 1 (% inhibition)” value was -4.90%.

For `CCN1C[C@]2(COC)[C@H](O)C[C@H](OC)[C@@]34[C@@H]5C[C@@]6(O)[C@H](OC(=O)c7ccccc7)[C@@H]5[C@@](OC(C)=O)([C@@H]([C@H](OC)[C@H]23)[C@@H]14)[C@@H](O)[C@@H]6OC` [Aconitine], the “Plate 1 (% conversion)” value was 40.69% and the “Plate 1 (% inhibition)” value was -14.35%.

For `CCCCC[C@H](CC(=O)NO)C(=O)N[C@H](C(=O)N1CCC[C@H]1CO)C(C)C` [Actinonin], the “Plate 1 (% inhibition)” value [4] was -5.32% and the “Plate 1 (% conversion)” value [5] was 37.66%.

`Nc1nc2c(ncn2COCCO)c(=O)[nH]1` [Acyclovir] was tested, and the “Plate 1 (% inhibition)” value [4] was -3.39% and the “Plate 1 (% conversion)” value [5] was 37.01%.

`Nc1ncnc2c1ncn2[C@@H]1O[C@H](CO)[C@@H](O)[C@H]1O` [Adenosine] was tested, and the “Plate 1 (% inhibition)” value [4] was 4.27% and the “Plate 1 (% conversion)” value [5] was 34.44%.

With `NCCCCN=C(N)N` [Agmatine sulfate] the “Plate 1 (% conversion)” value was 36.66% and the “Plate 1 (% inhibition)” value [4] was -2.35%.

For `COc1ccc2cccc(CCNC(C)=O)c2c1` [Agomelatine], the “Plate 3 (% conversion)” value [3] was 37.59%.

With `CC(C)(C)NCC(O)c1ccc(O)c(CO)c1.CC(C)(C)NCC(O)c1ccc(O)c(CO)c1.O=S(=O)(O)O` (centres unmarked) [Albuterol hemisulfate] the “% conversion” value [1] was 30.81%.

In the case of `COc1cc2nc(N(C)CCCNC(=O)C3CCCO3)nc(N)c2cc1OC` (centres unmarked) [Alfuzosin hydrochloride], the “Plate 1 (% inhibition)” value [4] is reported as -12.38% and the “Plate 1 (% conversion)” value [5] is reported as 40.03%.

In the case of `O=c1nc2[nH]c3ccccc3nc-2c(=O)[nH]1` [Alloxazine], the “Plate 1 (% inhibition)” value [4] is reported as -13.62% and the “Plate 1 (% conversion)” value [5] is reported as 40.45%.

`C=CCc1ccccc1OCC(O)CNC(C)C` (centres unmarked) [Alprenolol hydrochloride] was tested, and the “Plate 1 (% inhibition)” value [4] was -9.33% and the “Plate 1 (% conversion)” value [5] was 39.00%.

`CN(C)c1nc(N(C)C)nc(N(C)C)n1` [Altretamine] was tested, and the “Plate 1 (% inhibition)” value [4] was -0.35% and the “Plate 1 (% conversion)” value [5] was 35.99%.

In the case of `NC12CC3CC(CC(C3)C1)C2` [Amantadine hydrochloride], the “Plate 1 (% inhibition)” value [4] is reported as -1.83% and the “Plate 1 (% conversion)” value [5] is reported as 36.49%.

With `NCCCNCCSP(=O)(O)O` [Amifostine] the “Plate 1 (% conversion)” value was 40.67% and the “Plate 1 (% inhibition)” value [4] was -14.28%.

In the case of `N=C(N)NC(=O)c1nc(Cl)c(N)nc1N` [Amiloride hydrochloride], the “Plate 1 (% inhibition)” value [4] is reported as 4.62% and the “Plate 1 (% conversion)” value [5] is reported as 34.32%.

In the case of `CN1[C@@H]2CC[C@H]1C[C@@H](OC(c1ccccc1)c1ccccc1N)C2` (some centres unmarked) [Aminobenztropine], the “Plate 1 (% conversion)” value is reported as 38.12% and the “Plate 1 (% inhibition)” value [4] is reported as -6.68%.
